Source: US12391643B2, “Substituted amino-thiol and amino-disulfide compounds, and uses thereof” (The Regents of the University of California, priority 2019, dated 2025)

Columns and labels:
[1] = test system: C57BL/6 male mice on CDAHFD diet; experiment: In vivo NASH model, treatment phase (8 weeks CDAHFD, then 2 weeks daily gavage); conditions: for Fatty deposits / fat globules in liver, H&E staining: 200 mg/kg/day
Description: Liver Inflammatory Cells. CD11b stains macrophages and microglia. CD11b staining of liver tissue was taken after 10 weeks of CDAHFD in three groups of mice. […] At 8 weeks, treatment group 2 (“C2”) mice started gavage feeding with D2-Cystamine at 200 mg/kg/day once daily gavage, and treatment group 3 (“C3”) mice received D4-Cystamine at 200 mg/kg/day by once daily gavage.
In vivo NASH Models. NASH models from normal C57BL/6 male mice on CDAHFD diet (choline deficient, L-amino acid defined, high fat diet with restricted amount of methionine) were used. Two deuterated cystamine molecules were tested:
Two phase study was performed: (1) A prevention and (2) a treatment phase. 48 Mice were separated into nine groups of mice as described below. Histology at end of each study was performed looking for specific features of NASH (steatohepatitis, ballooning, fibrosis). The primary endpoint was plasma ALT measurement. Gene expression studies for fibrosis, inflammation were also performed.
Prevention Phase. Group 1: Control mice on CDAHFD for 8 weeks. Blood drawn at 0, 4, and 8 weeks. Group 2: Mice on CDAHFD plus D2 at 200 mg/kg/day for 8 weeks. Blood drawn at 0, 4, and 8 weeks. Group 3: Mice on CDAHFD plus D4 at 200 mg/kg/day for 8 weeks. Blood drawn at 0, 4, and 8 weeks. Group 4: Control mice (n=4) continue on CDAHFD for 2 weeks. Blood at baseline and at 2 weeks. Liver histology at 2 weeks. Group 5: Mice (n=4) on CDAHFD for 2 weeks plus D2 at 200 mg/kg/day administered via daily gavage. Blood at 0 and 2 weeks and histology at 2 weeks. Group 6: Mice (n=4) on CDAHFD for 2 weeks plus D4 at 200 mg/kg/day administered via daily gavage. Blood at 0 and 2 weeks and histology at 2 weeks.
Treatment Study Results. Groups 4, 5 and 6 mice received 8 weeks of CDAHDF diet before beginning treatment with deuterated compounds of the disclosure. During the treatment phase the mice continued to receive CDAHDF diet. Four mice were set in each group: control (C1) not receiving any drug; treatment (C2) receiving 200 mg/kg of cystamine D2 by once daily gavage; and treatment (C3) receiving 200 mg/kg cystamine D4 by once daily gavage.

[2] = Pharmacokinetics of cystamine and D4-cystamine in rats (monomer measured in plasma); format: in vivo, Sprague Dawley rats
Description: Pharmacokinetics of Cystamine in Rats.
In the experimental study 5 Sprague Dawley rats were used: 2 rats were used for control (non-deuterated cystamine) and 3 rats were used for the study compound (D4 cystamine).
Blood was sampled at 0, 20 min, 40 min, 1, 2, 4 and 6 hours (7 total samples per rat). Approximately 160 μl of whole blood was collected into an EDTA retro-orbital blood collection tube and briefly mixed to insure uniform mixing of EDTA. The blood was quickly transferred into a clean ependorf tube containing 40 μl of fresh 150 mM NEM, mixed and incubated at room temperature for 10 minutes. The Eppendorf tube was centrifuged at 3000 rmp for 5 minute sto pellet RBC and collect plasma into a fresh Eppendorf tube. The volume of the plasma was measured by pipette. Formic acid was added to the plasma to a concentration of 1% and mixed.

[3] = 200 mg/kg once daily gavage, 2 weeks

AUC relative to non-deuterated cystamine [2]: at least 1.6 ×
Cmax relative to non-deuterated cystamine [2]: ~2 ×
AUC of derived monomer, comparison in words ([2]; vs cystamine derived cysteamine): much higher
SMILES: [2H]C([2H])(CN)SSC([2H])([2H])CN [D4-Cystamine, 2,2′-disulfanediylbis(ethan-2,2-d2-1-aminium) chloride]
ALT versus untreated control group [1, 3]: significantly lower
Ratio of body weight to liver weight (BW/LW) at end of study versus control [1, 3]: statistically significant
Hepatic fibrosis, Sirius Red staining of liver sections ([1]; 200 mg/kg once daily gavage, 2 weeks, listed as D4): significant reduction in the amount of positive liver staining
Hepatic fibrosis, Sirius Red staining of liver sections ([1]; 200 mg/kg once daily gavage, 2 weeks, listed as cystamine D4): very significant reduction in hepatic fibrosis
Number of CD11b positive cells in liver tissue versus control group ([1]; 200 mg/kg/day once daily gavage, 2 weeks): statistically significant reduction
Fatty deposits / fat globules in liver, H&E staining ([1]; 2 weeks): reduction in fatty globules
Fatty deposits / fat globules in liver, H&E staining ([1]; 2 weeks, listed as D4): reduced fatty deposits compared to control
Pericentral fibrosis in liver ([1]; Sirius Red staining, 2 weeks): less pericentral fibrosis
Collagen 1 expression, qPCR, versus control ([1]; liver, 2 weeks of treatment): significant reduction
